Paper PMC11913021 (Journal of Medicinal Chemistry, 2024)

Molecular target: T1, F789A mutant PLD1 (Homo sapiens, UniProt Q13393, F827A)
T1 sequence (Q13393 1-1036 isoform Q13393-2 F789A): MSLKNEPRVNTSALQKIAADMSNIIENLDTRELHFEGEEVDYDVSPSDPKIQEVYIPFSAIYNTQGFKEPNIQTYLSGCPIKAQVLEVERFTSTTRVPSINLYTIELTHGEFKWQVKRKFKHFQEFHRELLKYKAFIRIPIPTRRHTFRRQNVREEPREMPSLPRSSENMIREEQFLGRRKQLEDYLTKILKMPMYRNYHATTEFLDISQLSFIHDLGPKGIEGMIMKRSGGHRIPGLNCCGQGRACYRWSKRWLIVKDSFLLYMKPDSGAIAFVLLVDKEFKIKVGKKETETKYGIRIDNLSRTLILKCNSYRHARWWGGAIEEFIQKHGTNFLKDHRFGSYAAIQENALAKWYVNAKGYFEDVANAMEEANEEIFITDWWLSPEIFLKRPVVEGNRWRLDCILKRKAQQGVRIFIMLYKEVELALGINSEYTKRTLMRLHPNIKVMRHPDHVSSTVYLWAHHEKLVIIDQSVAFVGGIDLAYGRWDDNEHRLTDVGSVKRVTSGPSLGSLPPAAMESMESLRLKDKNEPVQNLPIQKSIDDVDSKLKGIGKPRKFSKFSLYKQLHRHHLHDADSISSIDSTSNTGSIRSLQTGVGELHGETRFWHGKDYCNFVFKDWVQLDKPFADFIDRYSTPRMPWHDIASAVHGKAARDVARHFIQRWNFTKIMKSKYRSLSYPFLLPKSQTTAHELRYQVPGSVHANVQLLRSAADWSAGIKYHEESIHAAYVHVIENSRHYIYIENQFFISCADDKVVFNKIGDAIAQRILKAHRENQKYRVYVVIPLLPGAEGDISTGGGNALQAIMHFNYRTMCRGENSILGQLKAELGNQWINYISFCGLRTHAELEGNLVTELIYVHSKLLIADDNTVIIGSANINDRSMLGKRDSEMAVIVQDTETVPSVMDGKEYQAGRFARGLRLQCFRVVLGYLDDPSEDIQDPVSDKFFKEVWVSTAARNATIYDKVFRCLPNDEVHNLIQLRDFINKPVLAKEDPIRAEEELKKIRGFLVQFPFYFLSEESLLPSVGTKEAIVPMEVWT
Test: PLD activity assay in F789A mutant PLD1-transfected cells
Type: cell-based

With “N-(3,5-Bis(trifluoromethyl)phenyl)-3-(1H-indol-3-yl)propanamide [3r]” the PLD activity was “did not significantly inhibit”.
